The term inhibition denotes the relative decrease from the control value, in per cent. One may read the IC50 as the concentration that inhibits the measured activity by half. Higher therefore signals weaker potency.

Structures are written as SMILES. Where only a bound is given, the exact number is not on record here.

Drawing on US20230009626A1 (ICHNOS SCIENCES S.A., priority 2018, published 2023), this text covers inhibition and IC50 for 22 compounds.

For the experiment, the target named is HPK1 (MAP4K1) (Homo sapiens, UniProt Q92918). Briefly: FRET Assay for HPK1 (MAP4K1): one step binding assay, displacement of labeled tracer. As to conditions: for inhibition at 1 µM: 1 μM compound; for inhibition at 1 µM / inhibition at 10 µM: FRET ratio 665/620, percent of control; for inhibition at 10 µM: 10 μM compound; for IC50: dose response curve, nonlinear regression. An excerpt: FRET Assay for HPK1 (MAP4K1):
This is a one step binding assay based on the binding and displacement of the labeled tracer, where compound addition is followed by addition of the anti-GST tagged europium (Eu) as the donor and Alexa Fluor-labeled tracer as the acceptor. Simultaneous binding of both the tracer and GST-antibody to the kinase domain of HPK1 results in a high degree of FRET (fluorescence resonance energy transfer) from the anti-GST tagged europium (Eu) fluorophore to the Alexa Fluor® 647 fluorophore on the kinase tracer and this signal is reduced in presence of the inhibitor that can be measured.
Test compounds or reference compounds such as Sunitinib (Sigma) were dissolved in dimethylsulfoxide (DMSO) to prepare 10.0 mM stock solutions and diluted to the desired concentration. The final concentration of DMSO in the reaction was 3% (v/v). The assay mixture was prepared by mixing 4 nM of the Eu-Anti-GST Antibody and 10 nM MAP4K-1 enzyme in the Kinase buffer containing 50mM HEPES (pH 7.5), 10 mM MgCl2, 1 mM EGTA, 0.01% Brij-35 with or without the desired concentration of the compound. The reaction was incubated on ice for 15 mins. The pre-incubation step was followed by addition of the 20 nM Kinase Tracer 222 into the reaction mixture. After shaking for 5 min the reaction was further incubated for 1 hour at room temperature and this was kept at 4° C. and read on ARTEMIS reader as per the kit instructions (Thermo). […] The activity was calculated as percent of control reaction. IC50 values were calculated from dose response curve by nonlinear regression analysis using GraphPad Prism software.
Percentage inhibition at concentrations of 1.0 μM and 10.0 μM are given in the table along with IC50 (nM) details for selected examples.

Chain of HPK1 (MAP4K1) (Q92918 whole entry, the tested form may be a part): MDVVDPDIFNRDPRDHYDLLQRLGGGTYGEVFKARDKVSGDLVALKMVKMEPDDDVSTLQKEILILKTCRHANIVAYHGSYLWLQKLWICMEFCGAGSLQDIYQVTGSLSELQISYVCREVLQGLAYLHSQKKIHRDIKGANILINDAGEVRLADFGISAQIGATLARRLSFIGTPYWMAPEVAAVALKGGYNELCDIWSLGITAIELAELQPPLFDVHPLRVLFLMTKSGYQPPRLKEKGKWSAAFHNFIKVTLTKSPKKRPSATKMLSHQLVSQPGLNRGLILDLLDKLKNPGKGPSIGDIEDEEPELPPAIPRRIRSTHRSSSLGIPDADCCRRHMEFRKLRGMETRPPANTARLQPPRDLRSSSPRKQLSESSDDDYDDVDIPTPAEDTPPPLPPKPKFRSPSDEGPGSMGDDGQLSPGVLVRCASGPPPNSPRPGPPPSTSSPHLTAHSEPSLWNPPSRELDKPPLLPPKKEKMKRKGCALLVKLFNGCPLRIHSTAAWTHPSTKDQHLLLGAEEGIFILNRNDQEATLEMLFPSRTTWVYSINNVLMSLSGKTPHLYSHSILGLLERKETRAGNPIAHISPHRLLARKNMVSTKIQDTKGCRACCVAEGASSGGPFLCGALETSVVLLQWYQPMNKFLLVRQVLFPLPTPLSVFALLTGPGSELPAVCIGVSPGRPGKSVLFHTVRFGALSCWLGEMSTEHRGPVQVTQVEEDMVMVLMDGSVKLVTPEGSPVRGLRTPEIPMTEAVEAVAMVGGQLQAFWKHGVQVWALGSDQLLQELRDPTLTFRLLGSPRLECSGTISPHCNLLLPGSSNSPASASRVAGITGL

On to `C/C(Nc1c(C)nn(C)c1C)=C1/C(=O)Nc2cnc(-c3cnccc3C)cc21` [Example 119, (Z)-5-(4-Methylpyridin-3-yl)-3-(1-((1,3,5-trimethyl-1H-pyrazol-4-yl)amino)ethylidene)-1H-pyrrolo[2,3-c]pyridin-2(3H)-one], for which the inhibition at 1 µM was determined as 52.6%, the inhibition at 10 µM stood at 67% and the IC50 is > 0.5 µM.
For `C/C(Nc1cc(C)n(CC(C)C)n1)=C1/C(=O)Nc2cnc(-c3cnccc3C)cc21` [Example 186, (Z)-3-(1-((1-Isobutyl-5-methyl-1H-pyrazol-3-yl)amino)ethylidene)-5-(4-methylpyridin-3-yl)-1H-pyrrolo[2,3-c]pyridin-2(3H)-one], in that order: 70.9%, 72.2% and < 0.05 µM.
For the compound `C/C(Nc1cc2n(n1)CC(=O)N(C(C)C)C2)=C1/C(=O)Nc2cnc(-c3c(C)cccc3F)cc21` [Example 206, (Z)-2-((1-(5-(2-Fluoro-6-methylphenyl)-2-oxo-1H-pyrrolo[2,3-c]pyridin-3(2H)-ylidene)ethyl)amino)-5-isopropyl-4,5-dihydropyrazolo[1,5-a]pyrazin-6(7H)-one], the inhibition at 1 µM was 72.4%, the inhibition at 10 µM was found to be 84.9% and the IC50 is < 0.05 µM.
In the case of `C/C(Nc1cnn(CC(C)(C)O)c1)=C1/C(=O)Nc2cnc(-c3cnccc3C)cc21` [Example 78, (Z)-3-(1-((1-(2-Hydroxy-2-methylpropyl)-1H-pyrazol-4-yl)amino)ethylidene)-5-(4-methylpyridin-3-yl)-1H-pyrrolo[2,3-c]pyridin-2(3H)-one], the inhibition at 1 µM was 84.2%, the inhibition at 10 µM worked out at 83.1% and the IC50 was < 0.05 µM.
Turning to `CCS(=O)(=O)n1cc(N/C(C)=C2\C(=O)Nc3cnc(-c4cnccc4C)cc32)cn1` [Example 80, (Z)-3-(1-((1-(Ethylsulfonyl)-1H-pyrazol-4-yl)amino)ethylidene)-5-(4-methylpyridin-3-yl)-1H-pyrrolo[2,3-c]pyridin-2(3H)-one], the inhibition at 1 µM worked out at 75.1%, the inhibition at 10 µM was 78% and the IC50 is < 0.05 µM.
Take `C/C(Nc1cc(C)n(C(F)F)n1)=C1/C(=O)Nc2cnc(-c3cnccc3C)cc21` [Example 185, (Z)-3-(1-((1-(Difluoromethyl)-5-methyl-1H-pyrazol-3-yl)amino)ethylidene)-5-(4-methylpyridin-3-yl)-1H-pyrrolo[2,3-c]pyridin-2(3H)-one]: the inhibition at 1 µM is 73.2%, the inhibition at 10 µM was found to be 73.9% and the IC50 was < 0.05 µM.
For the compound `C/C(Nc1ccn(C2CCOCC2)n1)=C1/C(=O)Nc2cnc(-c3cnccc3C)cc21` [Example 83, (Z)-5-(4-Methylpyridin-3-yl)-3-(1-((1-(tetrahydro-2H-pyran-4-yl)-1H-pyrazol-3-yl)amino)ethylidene)-1H-pyrrolo[2,3-c]pyridin-2(3H)-one], the inhibition at 1 µM came out at 27.7% and the inhibition at 10 µM is 43.5%.
For the compound `C/C(Nc1cnn(C)c1)=C1/C(=O)Nc2cnc(-c3c(F)cccc3OC(F)F)cc21` [Example 35, (Z)-5-(2-(Difluoromethoxy)-6-fluorophenyl)-3-(1-((1-methyl-1H-pyrazol-4-yl)amino)ethylidene)-1H-pyrrolo[2,3-c]pyridin-2(3H)-one], the inhibition at 1 µM was 88%, the inhibition at 10 µM came to 100% and the IC50 is < 0.05 µM.
With `C/C(Nc1ncn(C)n1)=C1/C(=O)Nc2cnc(-c3cnccc3C)cc21` [Example 163, (Z)-3-(1-((1-Methyl-1H-1,2,4-triazol-3-yl)amino)ethylidene)-5-(4-methylpyridin-3-yl)-1H-pyrrolo[2,3-c]pyridin-2(3H)-one], the inhibition at 1 µM was found to be 77.3%, the inhibition at 10 µM came out at 81.5% and the IC50 is < 0.05 µM.
In the case of `CNC(=O)C(F)(F)n1ccc(N/C(C)=C2\C(=O)Nc3cnc(-c4cnccc4C)cc32)n1` [Example 155, (Z)-2,2-Difluoro-N-methyl-2-(3-((1-(5-(4-methylpyridin-3-yl)-2-oxo-1H-pyrrolo[2,3-c]pyridin-3(2H)-ylidene)ethyl)amino)-1H-pyrazol-1-yl)acetamide], the inhibition at 1 µM was 65.1%, the inhibition at 10 µM was found to be 68.8% and the IC50 is < 0.05 µM.
For `C/C(Nc1cnn(C2CC2)c1)=C1/C(=O)Nc2cnc(-c3cnccc3C)cc21` [Example 49, (Z)-3-(1-((1-Cyclopropyl-1H-pyrazol-4-yl)amino)ethylidene)-5-(4-methylpyridin-3-yl)-1H-pyrrolo[2,3-c]pyridin-2(3H)-one], in that order: 64.3%, 74.2% and < 0.05 µM.
Consider `C/C(Nc1cnn(C)c1)=C1/C(=O)Nc2cnc(-c3cncc4c3OCC(=O)N4)cc21` [Example 85, (Z)-8-(3-(1-((1-Methyl-1H-pyrazol-4-yl)amino)ethylidene)-2-oxo-2,3-dihydro-1H-pyrrolo[2,3-c]pyridin-5-yl)-2H-pyrido[4,3-b][1,4]oxazin-3(4H)-one], for which the inhibition at 1 µM was 78.2% and the IC50 is < 0.05 µM.
Take `C/C(Nc1ccn([C@@H](C)CO)n1)=C1/C(=O)Nc2cnc(-c3cnccc3C)cc21` [Example 134, (S,Z)-3-(1-((1-(1-Hydroxypropan-2-yl)-1H-pyrazol-3-yl)amino)ethylidene)-5-(4-methylpyridin-3-yl)-1H-pyrrolo[2,3-c]pyridin-2(3H)-one]: the inhibition at 1 µM was 83.6%, the inhibition at 10 µM is 85.2% and the IC50 is < 0.05 µM.
On to `COc1cccc(F)c1-c1cc2c(cn1)NC(=O)/C2=C(/C)Nc1cnn(C(F)F)c1` [Example 65, (Z)-3-(1-((1-(Difluoromethyl)-1H-pyrazol-4-yl)amino)ethylidene)-5-(2-fluoro-6-methoxyphenyl)-1H-pyrrolo[2,3-c]pyridin-2(3H)-one], for which the inhibition at 1 µM was 79.7%, the inhibition at 10 µM is 75.5% and the IC50 was in the range of 0.05 to 0.1 µM.
As to `C/C(Nc1ccc(C)nc1)=C1/C(=O)Nc2cnc(-c3cnccc3C)cc21` [Example 123, (Z)-5-(4-Methylpyridin-3-yl)-3-(1-((6-methylpyridin-3-yl)amino)ethylidene)-1H-pyrrolo[2,3-c]pyridin-2(3H)-one], the inhibition at 1 µM was 81.8%, the inhibition at 10 µM was 88.2% and the IC50 is < 0.05 µM.
Regarding `C/C(Nc1ccn(C)n1)=C1/C(=O)Nc2cnc(-c3cccnc3C)cc21` [Example 162, (Z)-3-(1-((1-Methyl-1H-pyrazol-3-yl)amino)ethylidene)-5-(2-methylpyridin-3-yl)-1H-pyrrolo[2,3-c]pyridin-2(3H)-one], the inhibition at 1 µM is 76.2%, the inhibition at 10 µM was found to be 92.9% and the IC50 lay in the range of 0.05 to 0.1 µM.
Regarding `COc1cccc(F)c1-c1ccc2c(c1)/C(=C(\C)Nc1ccccc1)C(=O)N2` [Example 3, (Z)-5-(2-Fluoro-6-methoxyphenyl)-3-(1-(phenylamino)ethylidene)indolin-2-one], the inhibition at 1 µM was determined as 62.5% and the IC50 was in the range of 0.1 to 0.5 µM.
`COc1cccc(F)c1-c1ccc2c(c1)/C(=C(\C)Nc1ccc(N3CCNCC3)cc1)C(=O)N2` [Example 8, (Z)-5-(2-Fluoro-6-methoxyphenyl)-3-(1-((4-(piperazin-1-yl)phenyl)amino)ethylidene)indolin-2-one]: the inhibition at 1 µM was determined as 84.8%, the inhibition at 10 µM amounted to 83.8% and the IC50 is < 0.05 µM.
On to `C/C(Nc1cnn(C)c1)=C1/C(=O)Nc2cc(C#N)c(-c3cnccc3C)cc21` [Example 151, (Z)-3-(1-((1-Methyl-1H-pyrazol-4-yl)amino)ethylidene)-5-(4-methylpyridin-3-yl)-2-oxoindoline-6-carbonitrile], for which the inhibition at 1 µM was determined as 85.2%, the inhibition at 10 µM amounted to 65.2% and the IC50 is < 0.05 µM.
For the compound `COc1cccc(F)c1-c1cc2c(cc1C#N)NC(=O)/C2=C(/C)Nc1cnn(C)c1` [Example 71, (Z)-5-(2-Fluoro-6-methoxyphenyl)-3-(1-((1-methyl-1H-pyrazol-4-yl)amino)ethylidene)-2-oxoindoline-6-carbonitrile], the inhibition at 1 µM was 71.7%, the inhibition at 10 µM was found to be 72.7% and the IC50 was < 0.05 µM.
Take `C/C(Nc1cc2n(n1)CCOC2)=C1/C(=O)Nc2ccc(-c3cnccc3C)cc21` [Example 193, (Z)-3-(1-((6,7-Dihydro-4H-pyrazolo[5,1-c][1,4]oxazin-2-yl)amino)ethylidene)-5-(4-methylpyridin-3-yl)indolin-2-one]: the inhibition at 1 µM was 78.2%, the inhibition at 10 µM was found to be 74.5% and the IC50 is < 0.05 µM.
`C/C(Nc1ccn(C(C)(C)C#N)n1)=C1/C(=O)Nc2cnc(-c3c(C)cccc3F)cc21` [Example 142, (Z)-2-(3-((1-(5-(2-Fluoro-6-methylphenyl)-2-oxo-1H-pyrrolo[2,3-c]pyridin-3(2H)-ylidene)ethyl)amino)-1H-pyrazol-1-yl)-2-methylpropanenitrile]: the inhibition at 1 µM was found to be 77.9%, the inhibition at 10 µM turned out to be 80.8% and the IC50 is < 0.05 µM.
